Reference: ChEMBL document CHEMBL1201862, “PubChem BioAssay data set” (2004)
Active and inactive are the calls of the source.

What was measured:
Beta-galactosidase = Beta-galactosidase (Escherichia coli, UniProt Q8VNN2); test: Dose response counterscreen for EBI2 assay utilizing the enzyme, b-galactosidase.; assay type: functional
[1] = inhibitors of intracellular T. cruzi replication, confirmation, NIH3T3 host cells, beta-gal luminescence (AID 2044); assay type: functional, cell-based;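 further: intracellular parasites grown in NIH/3T3 mouse fibroblasts as host cells; luminescent beta-galactosidase reporter signal from transgenic T. cruzi replicating inside host cells; inhibitors lower the luminescence signal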
[2] = cytotoxicity toward NIH3T3 fibroblasts, dose response, counter-screen, cell-based, ATP luminescence, mouse fibroblasts (AID 2010); assay type: functional;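 further: cells exposed to compound for about 90 hours before reading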
[3] = MC4R antagonists, dose response, counter-screen for LGR2 antagonist project, cell-based, plate reader, cherry pick (AID 743444); assay type: functional;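 further: transfected HEK 293 cells stimulated with alpha-MSH peptide; potency of inhibitors of the alpha-MSH evoked signal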
[4] = Luminescence Cell-Based Dose Response HTS to Identify Inhibitors of 5'UTR Stem-Loop Driven Prion Protein mRNA Translation in H4 Neuroglioblastoma Cells. [Related pubchem assays: 1827 (Project Summary), 1813 (Primary HTS)]; assay type: functional
[5] = target: T1, Nuclear receptor subfamily 0 group B member 1 (Homo sapiens, UniProt P51843); assay type: functional, cell-based;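 further: HEK293T cells transfected with SF-1 and DAX-1 plus StAR promoter luciferase reporter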
T1 sequence (P51843 whole entry): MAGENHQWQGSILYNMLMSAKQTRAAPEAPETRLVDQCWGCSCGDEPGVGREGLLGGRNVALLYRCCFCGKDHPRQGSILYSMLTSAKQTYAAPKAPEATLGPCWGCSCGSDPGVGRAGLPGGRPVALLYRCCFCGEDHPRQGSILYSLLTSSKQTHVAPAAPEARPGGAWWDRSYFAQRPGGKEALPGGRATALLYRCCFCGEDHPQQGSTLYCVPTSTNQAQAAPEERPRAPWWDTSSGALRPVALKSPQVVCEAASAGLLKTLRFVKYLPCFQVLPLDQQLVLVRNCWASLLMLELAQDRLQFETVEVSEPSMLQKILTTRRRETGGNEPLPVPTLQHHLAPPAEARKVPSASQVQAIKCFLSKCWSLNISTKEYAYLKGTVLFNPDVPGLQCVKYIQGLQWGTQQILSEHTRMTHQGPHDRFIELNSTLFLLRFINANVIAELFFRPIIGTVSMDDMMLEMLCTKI

cells = assay type: functional, cell-based
HEK293 = test: inhibitors of LMP1-driven NF-kB reporter, dose response, cell-based, HEK293, luciferase, cherry-pick (AID 588343); assay type: functional; settings: Homo sapiens
[6] = LGR2 antagonists, dose response, cell-based, HEK293, CRE-luciferase reporter, cherry pick, set 2 (AID 743343); assay type: functional;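 further: transfected cells were stimulated with diluted bursicon conditioned medium after compound addition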
[7] = inhibitors of SNCA 5'UTR-driven reporter translation, confirmation, H4 neuroglioma cells, luminescence (AID 1988); assay type: functional, cell-based
[8] = inhibitors of firefly luciferase expression or activity, dose response, H4 neuroglioma cells, luminescence (AID 1990); assay type: functional, cell-based
[9] = target: T2, Histone-lysine N-methyltransferase NSD2 (Homo sapiens, UniProt O96028); assay type: biochemical
T2 sequence (O96028 whole entry): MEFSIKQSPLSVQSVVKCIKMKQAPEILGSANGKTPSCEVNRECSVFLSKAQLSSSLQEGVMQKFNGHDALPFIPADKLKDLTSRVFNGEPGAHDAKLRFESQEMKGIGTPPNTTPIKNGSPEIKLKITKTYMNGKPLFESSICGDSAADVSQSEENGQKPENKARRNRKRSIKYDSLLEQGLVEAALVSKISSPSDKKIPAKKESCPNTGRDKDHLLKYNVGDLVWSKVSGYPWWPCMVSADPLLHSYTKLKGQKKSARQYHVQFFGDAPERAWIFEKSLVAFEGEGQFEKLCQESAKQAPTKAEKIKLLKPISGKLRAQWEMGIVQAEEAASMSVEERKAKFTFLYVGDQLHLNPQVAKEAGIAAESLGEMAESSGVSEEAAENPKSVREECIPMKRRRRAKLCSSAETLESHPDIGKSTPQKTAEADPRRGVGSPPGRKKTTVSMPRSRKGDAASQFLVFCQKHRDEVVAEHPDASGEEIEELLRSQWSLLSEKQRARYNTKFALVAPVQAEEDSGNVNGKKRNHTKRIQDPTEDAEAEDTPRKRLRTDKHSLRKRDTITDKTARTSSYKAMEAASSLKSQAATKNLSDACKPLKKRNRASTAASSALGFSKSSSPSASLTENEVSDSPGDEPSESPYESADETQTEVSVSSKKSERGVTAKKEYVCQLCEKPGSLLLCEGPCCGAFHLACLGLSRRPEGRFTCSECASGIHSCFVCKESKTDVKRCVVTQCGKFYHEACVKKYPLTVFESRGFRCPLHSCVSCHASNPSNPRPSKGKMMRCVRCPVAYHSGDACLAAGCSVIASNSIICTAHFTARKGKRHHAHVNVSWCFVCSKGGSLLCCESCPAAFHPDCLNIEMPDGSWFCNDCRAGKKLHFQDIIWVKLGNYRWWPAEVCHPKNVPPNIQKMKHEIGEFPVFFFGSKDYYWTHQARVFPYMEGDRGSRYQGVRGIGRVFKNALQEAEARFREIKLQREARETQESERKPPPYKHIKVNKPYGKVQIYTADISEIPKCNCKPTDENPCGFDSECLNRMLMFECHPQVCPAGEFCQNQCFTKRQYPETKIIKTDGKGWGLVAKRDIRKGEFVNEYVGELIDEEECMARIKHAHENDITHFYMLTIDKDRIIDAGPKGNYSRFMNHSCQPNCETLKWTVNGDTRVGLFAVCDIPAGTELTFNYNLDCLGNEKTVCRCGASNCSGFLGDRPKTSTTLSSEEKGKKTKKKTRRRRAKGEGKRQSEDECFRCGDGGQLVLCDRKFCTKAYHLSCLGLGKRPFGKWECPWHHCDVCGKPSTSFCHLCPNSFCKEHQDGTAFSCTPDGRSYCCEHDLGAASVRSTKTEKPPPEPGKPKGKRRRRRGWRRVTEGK

[10] = target: T3, Sentrin-specific protease 8 (Homo sapiens, UniProt Q96LD8); assay type: functional
T3 sequence (Q96LD8 whole entry): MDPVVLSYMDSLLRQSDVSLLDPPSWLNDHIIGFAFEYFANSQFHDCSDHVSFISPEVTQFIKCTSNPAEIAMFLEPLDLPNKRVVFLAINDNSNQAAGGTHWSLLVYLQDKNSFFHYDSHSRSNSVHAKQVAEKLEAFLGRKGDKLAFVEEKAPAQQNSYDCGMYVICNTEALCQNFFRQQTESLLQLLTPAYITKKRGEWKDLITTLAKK

[11] = target: T3, Sentrin-specific protease 8; assay type: functional; remark: listed apart in the source
Beta-lactamase [12] = target: T4, Beta-lactamase (Pseudomonas aeruginosa, UniProt Q79MP6); test: IMP-1 metallo-beta-lactamase inhibitors, dose response, selectivity assay for VIM-2 inhibitor project, biochemical, epi-absorbance (AID 1920)
T4 sequence (Q79MP6 whole entry): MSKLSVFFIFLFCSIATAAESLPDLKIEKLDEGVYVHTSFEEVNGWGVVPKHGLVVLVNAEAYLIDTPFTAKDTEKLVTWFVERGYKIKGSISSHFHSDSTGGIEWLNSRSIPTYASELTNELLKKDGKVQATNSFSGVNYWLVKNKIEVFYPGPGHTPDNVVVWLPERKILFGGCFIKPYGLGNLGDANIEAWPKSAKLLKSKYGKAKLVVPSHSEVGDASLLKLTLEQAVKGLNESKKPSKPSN

Cytochrome P450 1A2 = target: T5, Cytochrome P450 1A2 (Homo sapiens, UniProt P05177);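 further: PubChem cytochrome P450 panel assay, CYP1A2 panel member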
T5 sequence (P05177 whole entry): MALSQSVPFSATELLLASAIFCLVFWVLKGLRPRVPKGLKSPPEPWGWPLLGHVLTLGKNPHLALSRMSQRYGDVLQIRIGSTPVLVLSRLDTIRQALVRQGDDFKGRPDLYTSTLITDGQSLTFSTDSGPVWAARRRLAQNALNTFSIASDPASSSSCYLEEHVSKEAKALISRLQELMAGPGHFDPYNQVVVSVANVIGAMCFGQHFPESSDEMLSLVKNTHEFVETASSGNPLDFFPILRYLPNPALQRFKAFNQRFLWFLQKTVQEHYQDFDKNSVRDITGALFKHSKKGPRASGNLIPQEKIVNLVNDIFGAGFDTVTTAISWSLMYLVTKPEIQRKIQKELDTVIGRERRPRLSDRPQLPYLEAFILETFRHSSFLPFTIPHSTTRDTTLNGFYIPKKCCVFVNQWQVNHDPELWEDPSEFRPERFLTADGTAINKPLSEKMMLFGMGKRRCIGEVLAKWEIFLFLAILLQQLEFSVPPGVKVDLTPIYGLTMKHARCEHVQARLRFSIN

Beta-lactamase [13] = target: T4, Beta-lactamase; test: […] counterscreen for selective VIM-2 inhibitors: dose response biochemical high throughput screening assay to identify inhibitors of IMP-1 metallo-beta-lactamase.
Cytochrome P450 2C9 = Cytochrome P450 2C9 (Homo sapiens, UniProt P11712)
Sequence of Cytochrome P450 2C9 (P11712 whole entry): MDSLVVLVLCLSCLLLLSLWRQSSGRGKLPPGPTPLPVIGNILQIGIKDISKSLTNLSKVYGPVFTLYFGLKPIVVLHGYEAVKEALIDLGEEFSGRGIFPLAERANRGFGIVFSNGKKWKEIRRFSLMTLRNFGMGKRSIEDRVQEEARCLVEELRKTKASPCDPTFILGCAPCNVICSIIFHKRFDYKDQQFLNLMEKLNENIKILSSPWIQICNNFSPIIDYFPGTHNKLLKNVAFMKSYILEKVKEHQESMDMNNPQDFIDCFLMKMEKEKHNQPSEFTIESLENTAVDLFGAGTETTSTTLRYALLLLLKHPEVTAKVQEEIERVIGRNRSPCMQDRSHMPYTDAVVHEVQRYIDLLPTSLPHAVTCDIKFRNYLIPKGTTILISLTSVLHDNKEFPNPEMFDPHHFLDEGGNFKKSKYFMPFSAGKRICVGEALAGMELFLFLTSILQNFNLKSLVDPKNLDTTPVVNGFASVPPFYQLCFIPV

Beta-lactamase [14] = target: Beta-lactamase (Salmonella choleraesuis (strain SC-B67), UniProt Q5J463); test: Epi-absorbance-based counterscreen for selective VIM-2 inhibitors: dose response biochemical high throughput screening assay to identify inhibitors of TEM-1 serine-beta-lactamase.
Sequence of Beta-lactamase (Salmonella choleraesuis (strain SC-B67), UniProt Q5J463) (Q5J463 whole entry): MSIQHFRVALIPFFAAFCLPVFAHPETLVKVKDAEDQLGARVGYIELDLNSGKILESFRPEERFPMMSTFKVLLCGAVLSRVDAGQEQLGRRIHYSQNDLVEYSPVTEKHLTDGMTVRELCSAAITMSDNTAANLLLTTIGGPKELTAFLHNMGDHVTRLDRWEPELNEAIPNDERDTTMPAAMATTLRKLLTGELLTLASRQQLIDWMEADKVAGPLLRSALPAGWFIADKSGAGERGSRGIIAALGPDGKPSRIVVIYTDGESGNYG

[15] = target: Ras and Rab interactor 1/Tyrosine-protein kinase ABL1 (Homo sapiens, UniProt P00519+Q13671); assay type: functional;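 further: biochemical TR-FRET dose-response test measuring inhibition of binding between Rin1 and Abl proteins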
Sequence of Ras and Rab interactor 1/Tyrosine-protein kinase ABL1 (P00519 whole entry, the tested form may be a part): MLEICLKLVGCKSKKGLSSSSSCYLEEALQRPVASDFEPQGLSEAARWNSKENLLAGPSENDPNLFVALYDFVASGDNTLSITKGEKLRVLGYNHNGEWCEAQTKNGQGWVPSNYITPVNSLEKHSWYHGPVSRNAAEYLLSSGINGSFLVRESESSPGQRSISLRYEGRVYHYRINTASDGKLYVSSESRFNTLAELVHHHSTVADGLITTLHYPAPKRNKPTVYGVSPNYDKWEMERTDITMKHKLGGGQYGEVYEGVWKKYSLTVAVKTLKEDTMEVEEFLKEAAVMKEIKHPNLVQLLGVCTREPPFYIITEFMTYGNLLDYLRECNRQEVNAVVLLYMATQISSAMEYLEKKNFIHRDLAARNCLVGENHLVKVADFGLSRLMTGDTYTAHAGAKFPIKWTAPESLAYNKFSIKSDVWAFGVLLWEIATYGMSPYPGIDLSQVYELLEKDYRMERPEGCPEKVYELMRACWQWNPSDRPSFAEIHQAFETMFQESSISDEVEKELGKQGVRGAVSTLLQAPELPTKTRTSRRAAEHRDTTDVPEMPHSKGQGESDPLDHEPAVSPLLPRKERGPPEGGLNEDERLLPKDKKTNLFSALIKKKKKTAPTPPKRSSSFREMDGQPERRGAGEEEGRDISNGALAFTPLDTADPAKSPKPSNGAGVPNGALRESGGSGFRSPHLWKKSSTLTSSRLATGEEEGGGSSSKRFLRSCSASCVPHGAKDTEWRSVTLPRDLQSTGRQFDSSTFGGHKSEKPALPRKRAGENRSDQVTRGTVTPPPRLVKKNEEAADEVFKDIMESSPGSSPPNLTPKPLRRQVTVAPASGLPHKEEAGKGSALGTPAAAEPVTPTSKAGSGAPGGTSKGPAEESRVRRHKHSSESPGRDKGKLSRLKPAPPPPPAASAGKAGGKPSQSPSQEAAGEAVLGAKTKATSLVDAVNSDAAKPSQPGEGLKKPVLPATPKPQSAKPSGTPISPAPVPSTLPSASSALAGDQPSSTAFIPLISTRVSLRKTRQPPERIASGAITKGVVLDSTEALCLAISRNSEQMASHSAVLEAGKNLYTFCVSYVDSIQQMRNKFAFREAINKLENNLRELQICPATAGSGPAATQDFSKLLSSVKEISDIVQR
Sequence of Ras and Rab interactor 1/Tyrosine-protein kinase ABL1 (Q13671 whole entry, the tested form may be a part): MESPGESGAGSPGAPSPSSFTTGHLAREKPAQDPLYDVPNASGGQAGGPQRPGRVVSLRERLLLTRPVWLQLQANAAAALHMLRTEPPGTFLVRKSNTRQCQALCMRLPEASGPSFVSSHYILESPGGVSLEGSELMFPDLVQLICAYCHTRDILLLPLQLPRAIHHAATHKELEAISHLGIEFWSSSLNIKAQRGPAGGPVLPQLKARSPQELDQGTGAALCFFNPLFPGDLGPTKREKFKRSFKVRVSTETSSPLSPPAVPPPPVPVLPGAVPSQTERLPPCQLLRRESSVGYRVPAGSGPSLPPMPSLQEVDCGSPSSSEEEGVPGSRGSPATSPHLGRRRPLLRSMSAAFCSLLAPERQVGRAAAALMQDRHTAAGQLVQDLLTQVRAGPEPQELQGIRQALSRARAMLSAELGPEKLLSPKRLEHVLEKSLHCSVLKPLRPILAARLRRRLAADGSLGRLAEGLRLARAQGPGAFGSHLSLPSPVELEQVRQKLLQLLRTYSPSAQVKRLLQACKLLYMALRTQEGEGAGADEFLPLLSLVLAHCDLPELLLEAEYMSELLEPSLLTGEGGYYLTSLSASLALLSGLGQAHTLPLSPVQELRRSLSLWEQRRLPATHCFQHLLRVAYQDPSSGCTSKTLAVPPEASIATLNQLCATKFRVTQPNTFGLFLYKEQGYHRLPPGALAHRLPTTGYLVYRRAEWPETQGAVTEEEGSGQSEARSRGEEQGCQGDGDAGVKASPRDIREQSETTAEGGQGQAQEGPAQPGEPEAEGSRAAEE

[16] = inhibitors of HIV Env-driven cell fusion, dose response, cherry-pick (AID 652057); assay type: functional, cell-based
[17] = CEM21 lymphoblast cell cytotoxicity, dose response, cytotoxicity control for viral fusion inhibitor project, CellTiter-Glo luminescence, cherry-picked (AID 652042); assay type: functional, cell-based;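 further: potency for signal decrease meaning cytotoxicity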
Cysteine protease ATG4B = target: T6, Cysteine protease ATG4B (Homo sapiens, UniProt Q9Y4P1); assay type: functional;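 further: Fluorescence-based dose-response confirmation assay measuring inhibition of ATG4B activity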
T6 sequence (Q9Y4P1 whole entry): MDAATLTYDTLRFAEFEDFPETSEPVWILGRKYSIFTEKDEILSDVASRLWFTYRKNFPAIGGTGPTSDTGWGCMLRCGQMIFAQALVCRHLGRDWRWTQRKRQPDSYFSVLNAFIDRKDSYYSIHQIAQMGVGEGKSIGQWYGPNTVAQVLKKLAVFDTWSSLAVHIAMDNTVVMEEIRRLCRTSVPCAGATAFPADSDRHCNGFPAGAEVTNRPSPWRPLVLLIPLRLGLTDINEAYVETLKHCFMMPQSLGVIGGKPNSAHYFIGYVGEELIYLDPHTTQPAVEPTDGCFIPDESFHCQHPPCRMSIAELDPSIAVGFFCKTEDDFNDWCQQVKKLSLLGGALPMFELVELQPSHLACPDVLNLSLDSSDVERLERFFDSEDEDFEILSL

[18] = off-target signal loss in HeLa-CEM21 co-culture – HeLa F-luc CTL cells, cherry-picked, counter-screen for HIV-1 Env fusion inhibitor project, dose response (AID 652040); assay type: functional, cell-based;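 further: potency for signal decrease marking cytotoxic or nonspecific inhibition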
Phospholipase A2 = Phospholipase A2 (Homo sapiens, UniProt P04054); assay type: functional;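 further: confirmatory dose-response counterscreen on phospholipase A2, testing hits that came from an ultra-high-throughput screen for ATG4B inhibitors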
Sequence of Phospholipase A2 (P04054 whole entry): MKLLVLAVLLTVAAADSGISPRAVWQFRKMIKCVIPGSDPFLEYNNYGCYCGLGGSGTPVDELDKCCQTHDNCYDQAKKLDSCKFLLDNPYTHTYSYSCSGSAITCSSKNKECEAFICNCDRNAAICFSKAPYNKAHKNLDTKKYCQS

[19] = Luminescence Cell-Based Dose Retest to Confirm Inhibitors of Cancer Stem Cells. [Related pubchem assays (depositor defined):AID2717, AID2721]; assay type: functional; settings: Homo sapiens
[20] = inhibitors of clade B AD8 Env fusion, dose response, cell-based, cherry-pick (AID 652062); assay type: functional;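 further: luciferase signal from cell-cell fusion driven by HIV-1 clade B AD8 Env; potency is for inhibitors of fusion seen as a drop in luminescence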
[21] = target: DNA repair and recombination protein RAD54-like (Homo sapiens, UniProt Q92698); test: inhibitors of human RAD54 branch migration, confirmation, biochemical, fluorescence, cherry-picked samples, dose series (AID 651657); assay type: functional
Sequence of DNA repair and recombination protein RAD54-like (Q92698 whole entry): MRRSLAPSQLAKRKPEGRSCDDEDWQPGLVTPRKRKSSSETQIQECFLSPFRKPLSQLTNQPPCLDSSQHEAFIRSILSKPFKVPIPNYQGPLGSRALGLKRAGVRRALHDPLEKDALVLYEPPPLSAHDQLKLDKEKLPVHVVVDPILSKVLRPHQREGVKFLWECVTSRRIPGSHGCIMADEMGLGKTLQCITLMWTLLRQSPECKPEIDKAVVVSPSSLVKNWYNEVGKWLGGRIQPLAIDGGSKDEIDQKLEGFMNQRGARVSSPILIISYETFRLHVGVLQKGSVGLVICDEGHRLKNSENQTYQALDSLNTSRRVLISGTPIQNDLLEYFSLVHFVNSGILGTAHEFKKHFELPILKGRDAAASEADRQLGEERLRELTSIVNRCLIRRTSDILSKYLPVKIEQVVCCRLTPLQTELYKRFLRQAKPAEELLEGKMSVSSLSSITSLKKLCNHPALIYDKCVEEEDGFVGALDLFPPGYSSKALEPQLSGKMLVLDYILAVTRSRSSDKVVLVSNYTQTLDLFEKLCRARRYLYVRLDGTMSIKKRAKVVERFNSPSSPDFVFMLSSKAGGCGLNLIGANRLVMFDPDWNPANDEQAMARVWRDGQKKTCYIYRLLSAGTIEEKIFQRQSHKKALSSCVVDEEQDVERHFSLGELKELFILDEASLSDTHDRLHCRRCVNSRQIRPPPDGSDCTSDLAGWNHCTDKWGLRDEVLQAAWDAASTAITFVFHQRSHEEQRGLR

Sequence of Beta-galactosidase (Q8VNN2 whole entry): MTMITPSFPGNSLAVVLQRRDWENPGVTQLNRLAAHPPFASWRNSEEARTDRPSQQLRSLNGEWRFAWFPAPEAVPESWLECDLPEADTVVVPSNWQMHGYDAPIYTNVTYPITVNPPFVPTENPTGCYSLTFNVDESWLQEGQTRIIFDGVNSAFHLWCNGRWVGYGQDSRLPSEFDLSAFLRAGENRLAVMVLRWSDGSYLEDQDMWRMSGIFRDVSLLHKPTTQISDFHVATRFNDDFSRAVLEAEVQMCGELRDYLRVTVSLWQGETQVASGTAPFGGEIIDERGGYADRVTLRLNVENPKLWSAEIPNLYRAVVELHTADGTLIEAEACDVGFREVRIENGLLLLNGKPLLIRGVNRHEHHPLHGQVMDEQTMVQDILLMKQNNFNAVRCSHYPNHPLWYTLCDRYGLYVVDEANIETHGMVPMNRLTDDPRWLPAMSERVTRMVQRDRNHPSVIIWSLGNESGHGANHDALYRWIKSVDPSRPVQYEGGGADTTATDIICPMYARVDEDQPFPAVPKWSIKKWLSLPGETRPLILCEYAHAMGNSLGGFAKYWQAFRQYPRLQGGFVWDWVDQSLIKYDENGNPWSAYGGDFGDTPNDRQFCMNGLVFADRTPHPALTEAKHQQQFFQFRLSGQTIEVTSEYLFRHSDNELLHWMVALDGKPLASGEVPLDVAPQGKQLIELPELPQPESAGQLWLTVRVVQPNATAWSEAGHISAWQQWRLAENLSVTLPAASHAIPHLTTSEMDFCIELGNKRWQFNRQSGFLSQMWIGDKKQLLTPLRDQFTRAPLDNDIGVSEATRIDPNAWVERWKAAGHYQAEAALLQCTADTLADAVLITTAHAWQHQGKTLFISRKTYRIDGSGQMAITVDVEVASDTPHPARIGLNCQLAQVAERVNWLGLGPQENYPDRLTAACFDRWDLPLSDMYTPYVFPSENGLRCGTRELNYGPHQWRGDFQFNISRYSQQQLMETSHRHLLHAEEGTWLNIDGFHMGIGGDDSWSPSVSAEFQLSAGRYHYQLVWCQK

**Q.** What does the source list for `O=C(c1ccc2ccccc2c1)N1CCN(S(=O)(=O)/C=C/c2ccccc2)CC1`?
**A.** IC50 (Beta-galactosidase): > 80 µM (inactive); EC50 [1]: 1.1 µM (active); EC50 [2]: > 30 µM (not active)

**Q.** Which results are given for `COC(=O)c1ccc2nc(-c3cccc(N)c3)cn2c1`?
**A.** AC50 [3]: 2.62 µM (active); EC50 [4]: > 60 µM (not active); IC50 [5]: > 834 nM (active); IC50 (cells): > 67.5 µM (inactive); AC50 (HEK293): 2.21 µM (active); AC50 [6]: 3.22 µM (active); EC50 [7]: 6.89 µM (active); EC50 [8]: > 60 µM (not active)

**Q.** Which results are given for `Cc1n[nH]c(O)c1C(c1ccc(-c2ccc(Cl)cc2)o1)c1c(C)n[nH]c1O`?
**A.** AC50 [9]: 8.22 µM (active); IC50 [10]: 12.9 µM (active); IC50 [11]: 36.3 µM (active)

**Q.** Which results are given for `CCOC(=O)c1[nH]c(C(=O)O)c(CCC(=O)OC)c1C`?
**A.** IC50 (Beta-lactamase [12]): > 59.6 µM (inactive); AC50 (Cytochrome P450 1A2): 251 nM (inconclusive); IC50 (Beta-lactamase [13]): 29.4 µM (inactive); AC50 (Cytochrome P450 2C9): 31.6 µM (inconclusive); IC50 (Beta-lactamase [14]): > 59.6 µM (inactive)

**Q.** For `COc1ccc2oc(C(=O)NCC(c3ccco3)N(C)C)c(C)c2c1` (stereo unspecified), which IC50 [15] is on record?
**A.** 3.82 µM (active)

**Q.** For `CCC(=O)NC(=S)Nc1cccc(Cl)c1N1CCCCC1`, which AC50 [16] is on record?
**A.** 17.3 µM (active)

**Q.** What about the AC50 [17] of the same compound?
**A.** 36.5 µM (active)

**Q.** And the IC50 (Cysteine protease ATG4B)?
**A.** 6.09 µM (active)

**Q.** And the AC50 [18]?
**A.** > 70 µM (inactive)

**Q.** And the IC50 (Phospholipase A2)?
**A.** 3.78 µM (active)

**Q.** What about the AC50 [19] of the same compound?
**A.** 5.27 µM (active)

**Q.** What about the AC50 [20] of the same compound?
**A.** 38.5 µM (active)

**Q.** For `O=C(CSc1nnc(NC(=O)c2cc(Br)ccc2Cl)s1)NCC1CCCO1` (stereo unspecified), which IC50 (Beta-lactamase [12]) is on record?
**A.** > 59.6 µM (inactive)

**Q.** And the IC50 (Beta-lactamase [13])?
**A.** > 59.6 µM (inactive)

**Q.** What about the IC50 (Beta-lactamase [14]) of the same compound?
**A.** > 59.6 µM (inactive)

**Q.** With `NNC(=O)c1oc2nc(-c3cccs3)cc(-c3ccco3)c2c1N` as the compound, how does the AC50 [21] read?
**A.** 16.6 µM (active)
